Data on 7 compounds can be found in patent US20160355475A1, “NOVEL INDOLE DERIVATIVE COMPOUND AND PHARMACEUTICAL COMPOSITION COMPRISING THE SAME” (CHONG KUN DANG PHARMACEUTICAL CORP., priority 2014, published 2016).

One data set deals with T1, HDAC6 human recombinant (Homo sapiens, UniProt Q9UBN7).
T1 construct: purchased Calbiochem 382180
T1 sequence (Q9UBN7 1-1215): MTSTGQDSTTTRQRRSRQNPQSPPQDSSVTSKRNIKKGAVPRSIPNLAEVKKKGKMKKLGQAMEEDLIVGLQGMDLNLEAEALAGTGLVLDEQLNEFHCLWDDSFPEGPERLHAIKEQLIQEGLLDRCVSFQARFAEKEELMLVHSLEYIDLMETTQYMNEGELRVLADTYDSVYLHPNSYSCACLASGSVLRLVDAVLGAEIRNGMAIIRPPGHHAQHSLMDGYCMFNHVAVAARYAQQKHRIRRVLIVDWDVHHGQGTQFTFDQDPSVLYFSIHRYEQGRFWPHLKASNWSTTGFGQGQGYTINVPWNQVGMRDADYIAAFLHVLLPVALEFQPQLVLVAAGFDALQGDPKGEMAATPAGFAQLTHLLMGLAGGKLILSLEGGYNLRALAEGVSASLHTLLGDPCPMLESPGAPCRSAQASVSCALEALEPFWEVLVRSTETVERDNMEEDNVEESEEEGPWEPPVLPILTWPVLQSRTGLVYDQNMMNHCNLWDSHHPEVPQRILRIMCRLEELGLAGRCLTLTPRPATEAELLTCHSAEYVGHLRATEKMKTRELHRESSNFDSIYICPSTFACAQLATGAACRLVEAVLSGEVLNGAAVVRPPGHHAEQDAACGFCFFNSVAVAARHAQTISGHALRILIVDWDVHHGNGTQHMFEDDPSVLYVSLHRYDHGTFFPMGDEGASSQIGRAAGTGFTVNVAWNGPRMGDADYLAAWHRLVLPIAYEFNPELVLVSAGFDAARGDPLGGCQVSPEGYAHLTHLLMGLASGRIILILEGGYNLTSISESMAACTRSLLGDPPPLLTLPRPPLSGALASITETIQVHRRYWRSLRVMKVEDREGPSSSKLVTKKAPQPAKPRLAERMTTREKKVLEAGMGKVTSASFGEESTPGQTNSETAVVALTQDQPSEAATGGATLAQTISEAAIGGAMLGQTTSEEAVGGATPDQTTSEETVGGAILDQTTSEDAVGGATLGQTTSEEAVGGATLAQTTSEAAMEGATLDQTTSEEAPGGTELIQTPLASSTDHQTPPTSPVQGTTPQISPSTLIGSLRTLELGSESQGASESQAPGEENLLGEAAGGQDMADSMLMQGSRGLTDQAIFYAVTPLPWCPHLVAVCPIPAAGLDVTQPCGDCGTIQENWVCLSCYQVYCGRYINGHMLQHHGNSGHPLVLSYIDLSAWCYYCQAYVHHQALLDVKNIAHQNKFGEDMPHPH
The data set is described as follows: HDAC6 enzyme activity inhibition (fluorimetric, in vitro). The format is biochemical. The settings on record: 37° C., 60 minutes; tested at 0.1, 1, 10, 100 and 1000 nM. The procedure, abridged: (§1)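 Fluorimetric deacetylase assay using an HDAC1 kit and human recombinant HDAC6. Compounds tested at 100–10000 nM (HDAC1) or 0.1–1000 nM (HDAC6), reacted 60 min at 37 °C, then developer 30 min at 37 °C before fluorescence read. Values in μM.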

Data set [1] can be described thus: Distribution in brain tissue and plasma of ICR mice after oral administration. Format: in vivo. The settings on record: mouse, 50 mg/kg PO, 0.5, 1 and 2 hours, LC-MS/MS, FIG. 2, read-out: concentration in the plasma tissue relative to that in the brain tissue. Here is the method:
The distribution of the compound of the present invention in the brain tissue of ICR mice was examined. Specifically, the compound of the present invention was administered orally (PO) to ICR mice at a dose of 50 mg/kg. At 0.5, 1 and 2 hours after administration, blood was collected from the orbital venous plexus of the mice. After the mice were euthanized, the brain tissue (including cerebral, cerebellar and medullar tissues) was extracted.
The blood was centrifuged at 13000 rpm for 4 minutes, and then 30 μL of plasma was collected, and an organic solvent (90 wt % acetonitrile in methanol) was added thereto to remove protein. Then, the solution was centrifuged, and the supernatant was collected.
In addition, saline was added to the isolated brain tissue, and homogenized using a homogenizer. From the homogenized dilution, 100 μL of a sample was taken, and an organic solvent (90 wt % acetonitrile in methanol) was added thereto to remove protein, after which the solution was centrifuged, and the supernatant was collected. The concentrations of the compound of the present invention in the pretreated plasma and brain tissue solutions were analyzed by LC-MS/MS.

Data set [2] concerns tubulin acetylation (HDAC6). Put plainly: Western blot of tubulin acetylation in RPMI8226 cells. The settings on record: 24 hours, FIG. 1. Format: cell-based. As for the experimental part: (§2) Specifically, RPMI8226 cells were seeded into a six-well plate at a density of 1.0×10^6 cells/well, and then treated with varying concentrations of compound 528. After 24 hours, protein was extracted from the cells using RIPA buffer and quantified by the Bradford method. 25 μg of the protein was added to sample buffer and electrophoresed on 4-12% gradient gel, and the gel was transferred to a nitrocellulose membrane for 50 minutes. The membrane was blocked in 5% skim milk solution for 1 hour. Anti-acetyl H3 antibody (1:2,000), anti-acetyl H4 antibody (1:5,000), anti-acetyl tubulin antibody (1:5,000) and anti-β-actin antibody (1:10,000) were added to 5% skim milk, and the membrane was immersed in the skim milk and allowed to react at 4° C. for 16 hours, after which it was washed three times with 1×TBS-T for 10 minutes each washing. IgG-HRP antibody (1:5,000) was added to the 5% skim milk, and the membrane was immersed in the skim milk and allowed to react at room temperature for 40 minutes, after which it was washed three times with 1×TBS-T for 10 minutes each washing. Detection was performed by LAS 3000 using ECL solution.

The target of the next data set is T2, HDAC1 (Homo sapiens, UniProt Q13547).
T2 construct: purchased Enzolifesciences BML-AK511
T2 sequence (Q13547 whole entry): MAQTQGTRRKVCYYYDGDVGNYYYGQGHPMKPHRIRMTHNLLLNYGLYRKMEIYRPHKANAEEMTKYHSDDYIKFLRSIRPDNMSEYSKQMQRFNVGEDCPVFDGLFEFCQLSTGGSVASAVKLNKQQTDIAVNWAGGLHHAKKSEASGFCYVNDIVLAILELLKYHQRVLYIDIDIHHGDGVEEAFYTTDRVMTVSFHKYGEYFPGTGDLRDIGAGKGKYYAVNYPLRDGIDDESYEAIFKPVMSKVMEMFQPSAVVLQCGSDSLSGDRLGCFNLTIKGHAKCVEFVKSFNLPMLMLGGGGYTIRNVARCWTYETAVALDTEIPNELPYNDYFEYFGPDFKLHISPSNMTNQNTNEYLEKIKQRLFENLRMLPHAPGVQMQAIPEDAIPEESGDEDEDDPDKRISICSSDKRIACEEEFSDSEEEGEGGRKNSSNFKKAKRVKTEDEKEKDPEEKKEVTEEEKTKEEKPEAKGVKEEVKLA
Put plainly: HDAC1 enzyme activity inhibition (HDAC1 fluorimetric drug discovery assay kit). Format: biochemical. The settings on record: 37° C., 60 minutes; tested at 100, 1000 and 10000 nM. In short, it runs like this: as §1

In data set [3] the test system is histone acetylation (HDAC1). Put plainly: Western blot of histone H3 and H4 acetylation in RPMI8226 cells. The settings on record: 24 hours, FIG. 1. The format is cell-based. As for the experimental part:
as §2

As to `Cc1c(Cc2ccc(C(=O)NO)cc2)c2ccccc2n1CC1CCN(CC(C)(C)F)CC1` [Compound 528, 4-((1-((1-(2-fluoro-2-methylpropyl)piperidin-4-yl)methyl)-2-methyl-1H-indol-3-yl)methyl)-N-hydroxybenzamide], the IC50 at HDAC6 human recombinant was determined as 74 nM; against HDAC1, 8 µM. Also, the Kp in data set [1] is at least 0.5. In addition, the “compound concentration at which tubulin acetylation (HDAC6) appeared” value in data set [2] is on record as 100 nM. In data set [3], the “compound concentration at which histone acetylation (HDAC1) appeared” value was “at least 3 uM”.
With `Cc1c(Cc2ccc(C(=O)NO)cc2)c2ccccc2n1CC1CCN(CC2(F)CCCCC2)CC1` [Compound 698, 4-((1-((1-((1-Fluorocyclohexyl)methyl)piperidin-4-yl)methyl)-2-methyl-1H-indol-3-yl)methyl)-N-hydroxybenzamide], the IC50 at HDAC6 human recombinant was 430 nM; against HDAC1, over 10 µM.
Regarding `Cc1c(Cc2ccc(C(=O)NO)cc2)c2ccccc2n1CC1CCN(CC(C)(C)F)C1` (centres unmarked) [Compound 713, 4-((1-((1-(2-Fluoro-2-methylpropyl)pyrrolidin-3-yl)methyl)-2-methyl-1H-indol-3-yl)methyl)-N-hydroxybenzamide], the IC50 on HDAC6 human recombinant is 246 nM; against HDAC1, over 10 µM.
With `Cc1c(Cc2ccc(C(=O)NO)cc2)c2ccccc2n1CC1CCN(CC2(C(F)(F)F)CCC2)CC1` [Compound 728, N-hydroxy-4-((2-methyl-1-((1-((1-(trifluoromethyl)cyclobutyl)methyl)piperidin-4-yl)methyl)-1H-indol-3-yl)methyl)benzamide], the IC50 on HDAC6 human recombinant was 1190 nM; at HDAC1, over 10 µM.
Taken in the same sequence, the figures for `CC(C)(F)CN1CCC(Cn2cc(C(O)c3ccc(C(=O)NO)cc3)c3cccnc32)CC1` (centres unmarked) [Compound 747, 4-((1-((1-(2-Fluoro-2-methylpropyl)piperidin-4-yl)methyl)-1H-pyrrolo[2,3-b]pyridin-3-yl)(hydroxy)methyl)-N-hydroxybenzamide] were 334 nM and 6.1 µM.
The like results for `CC(C)(F)CN1CCC(Cn2cc(Cc3ccc(C(=O)NO)cc3)c3cccnc32)CC1` [Compound 748, 4-((1-((1-(2-Fluoro-2-methylpropyl)piperidin-4-yl)methyl)-1H-pyrrolo[2,3-b]pyridin-3-yl)methyl)-N-hydroxybenzamide] were, in that order, 140 nM and 3.88 µM.
The like results for `Cc1c(Cc2ccc(C(=O)NO)cc2)c2ccccc2n1CC1CN(CC2(F)COC2)C1` [Compound 749, 4-((1-((1-((3-Fluorooxetan-3-yl)methyl)azetidin-3-yl)methyl)-2-methyl-1H-indol-3-yl)methyl)-N-hydroxybenzamide] were, in that order, 92 nM and 8.59 µM.
